From patent US20230017786A1, “DEXTR[…] A DISEASE-MODIFYING TREATMENT FOR NEUROPSYCHIATRIC DISORDERS AND DISEASES” (priority 2020, published 2023)

Legend:
patients with MDD = test: Phase 2 sub-analysis, MADRS and SDQ composite indexes and single functional items; assay type: in vivo, human
Description: The present inventors selected items from the MADRS and SDQ scales and created Composite Indexes of cognitive and motivational functions: Cognitive composite index: [MADRS 6 (concentration difficulties), SDQ 16 (wakefulness), SDQ 22 (slowed down feeling, SDQ 35 (ability to focus), SDQ 36 (ability to remember), SDQ 37 (ability to find words), SDQ 38 (sharpness), SDQ 39 (ability to make decisions), SDQ 42 (ability to work)]; Motivation-energy composite index: [MADRS 7 (lassitude), SDQ 7 (motivation), SDQ 20 (energy)]; Mood composite index: [MADRS 1 (reported sadness), SDQ 1, 2, 3 (mood)]; Sleep composite index: [MADRS 4 (reduced sleep), SDQ 13 (ability to fall asleep), SDQ 14 (ability to stay asleep in the middle of the night), SDQ 15 (ability to stay asleep around the time before waking up)]; The present inventors also separately analyzed two additional single functional items part of the SDQ. 1) Social function, single question (SDQ 41, social functioning); 2) sexual function, single question (SDQ 40, sexual functioning).
Analysis of Change from Baseline at different times after the onset of treatment: The likelihood-based method applied is the Mixed-Effect Model Repeated Measures (MMRM) model with fixed-effect terms for treatment, visit (Day 2, Day 4, Day 7, Day 14) and the interaction between treatment and visit. The LS means and the LS means difference (the difference between REL-1017 and Placebo in the LS means) are provided along with the p-value for testing the hypothesis of no difference and the Cohen's effect size (calculated based on the LS mean differences and the pooled standard deviations). The 25 mg and 50 mg dosages are considered separately and combined: 25 mg+50 mg, Combined Treatment Group (CTG).

[1] = target: T1, human NMDA receptor GluN1-GluN2D (Homo sapiens, UniProt O15399+Q05586); test: FLIPR calcium assay, quinolinic acid, gentamicin, dextromethadone (Example 5 Part II), GluN1-GluN2D-CHO; assay type: cell-based; settings: 10 μM glycine; for calcium response (mean±SEM): GluN2D, n=42
T1 construct: expressed in transfected cells; host or cells: CHO
Method in brief: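 CHO lines expressing diheteromeric human GluN1/GluN2A–D, loaded 1 h with Fluo-4, tested by FLIPR for intracellular calcium with 10 μM glycine present. Quinolinic acid, gentamicin and test items were run as concentration-response curves, alone or combined. EC50 obtained from a four-parameter Hill fit.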

[2] = test system: Western diet fed Sprague-Dawley rats, liver; test: Western diet treated rats, hepatic inflammation, steatosis and lipid metabolism genes; settings: 10 mg/kg, gastric gavage, 15 days
[3] = target: T2, human NMDA receptor GluN1-GluN2C (Homo sapiens, UniProt Q05586+Q14957); test: FLIPR calcium assay, test item effect on L-glutamate CRC, GluN1-GluN2C-CHO; assay type: cell-based
T2 construct: expressed in transfected cells; host or cells: CHO

[4] = target: T3, recombinant human NMDAR GluN1 plus GluN2A (Homo sapiens, UniProt Q05586+Q12879); test: FLIPR calcium assay, gentamicin as PAM (Example 5 Part I), GluN2A cell line; assay type: cell-based; settings: 10 μM test item; dextromethadone in presence and absence of 10 μM gentamicin
T3 construct: expressed in transfected cells; host or cells: CHO
Description: (§1) A FLIPR calcium assay was used to profile gentamicin using stable cell lines expressing diheteromeric recombinant human NMDARs, containing GluN1 plus one amongst GluN2A, GluN2B, GluN2C or GluN2D subunit.

[5] = target: T4, recombinant human NMDAR GluN1 plus GluN2B (Homo sapiens, UniProt Q05586+Q13224); test: FLIPR calcium assay, gentamicin as PAM (Example 5 Part I), GluN2B cell line; assay type: cell-based; settings: 10 μM test item; dextromethadone in presence and absence of 10 μM gentamicin
T4 construct: expressed in transfected cells; host or cells: CHO
Description: as §1

[6] = 25 mg, day not given (first set)
[7] = 50 mg, day not given (first set)
[8] = CTG 25 mg+50 mg, day not given (first set)

T2 sequence (Q14957 20-1233, other chains not shown): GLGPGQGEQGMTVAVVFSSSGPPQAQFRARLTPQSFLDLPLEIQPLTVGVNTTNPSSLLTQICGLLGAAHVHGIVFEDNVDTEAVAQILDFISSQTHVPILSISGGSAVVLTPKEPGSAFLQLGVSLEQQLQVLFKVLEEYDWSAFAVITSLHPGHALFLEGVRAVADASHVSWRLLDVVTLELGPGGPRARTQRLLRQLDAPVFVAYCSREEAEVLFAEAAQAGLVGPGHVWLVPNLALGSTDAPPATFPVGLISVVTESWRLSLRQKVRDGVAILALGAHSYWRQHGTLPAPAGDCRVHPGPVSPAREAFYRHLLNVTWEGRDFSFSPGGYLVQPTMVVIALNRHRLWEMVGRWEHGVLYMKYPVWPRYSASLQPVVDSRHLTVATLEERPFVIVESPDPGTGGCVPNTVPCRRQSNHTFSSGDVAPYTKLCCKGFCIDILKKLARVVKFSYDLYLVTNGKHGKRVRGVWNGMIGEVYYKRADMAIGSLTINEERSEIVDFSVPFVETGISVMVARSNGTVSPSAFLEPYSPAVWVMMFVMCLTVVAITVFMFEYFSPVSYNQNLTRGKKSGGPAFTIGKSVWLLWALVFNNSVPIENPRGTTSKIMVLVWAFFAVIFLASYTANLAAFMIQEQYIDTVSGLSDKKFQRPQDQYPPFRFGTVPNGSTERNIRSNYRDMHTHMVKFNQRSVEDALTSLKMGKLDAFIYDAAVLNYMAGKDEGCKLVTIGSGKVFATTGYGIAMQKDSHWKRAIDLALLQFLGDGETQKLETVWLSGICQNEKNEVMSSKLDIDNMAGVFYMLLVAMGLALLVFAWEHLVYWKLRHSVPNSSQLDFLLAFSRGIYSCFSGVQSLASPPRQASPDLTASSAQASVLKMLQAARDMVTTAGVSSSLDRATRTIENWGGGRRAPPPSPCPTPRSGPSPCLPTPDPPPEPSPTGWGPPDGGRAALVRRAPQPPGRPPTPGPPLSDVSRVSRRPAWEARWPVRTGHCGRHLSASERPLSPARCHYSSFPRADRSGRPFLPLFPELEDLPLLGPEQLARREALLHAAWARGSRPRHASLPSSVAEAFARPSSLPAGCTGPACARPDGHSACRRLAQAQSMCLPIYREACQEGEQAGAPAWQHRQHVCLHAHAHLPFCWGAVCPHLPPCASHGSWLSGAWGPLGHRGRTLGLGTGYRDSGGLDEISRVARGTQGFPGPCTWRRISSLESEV
T3 sequence (Q12879 23-1464, other chains not shown): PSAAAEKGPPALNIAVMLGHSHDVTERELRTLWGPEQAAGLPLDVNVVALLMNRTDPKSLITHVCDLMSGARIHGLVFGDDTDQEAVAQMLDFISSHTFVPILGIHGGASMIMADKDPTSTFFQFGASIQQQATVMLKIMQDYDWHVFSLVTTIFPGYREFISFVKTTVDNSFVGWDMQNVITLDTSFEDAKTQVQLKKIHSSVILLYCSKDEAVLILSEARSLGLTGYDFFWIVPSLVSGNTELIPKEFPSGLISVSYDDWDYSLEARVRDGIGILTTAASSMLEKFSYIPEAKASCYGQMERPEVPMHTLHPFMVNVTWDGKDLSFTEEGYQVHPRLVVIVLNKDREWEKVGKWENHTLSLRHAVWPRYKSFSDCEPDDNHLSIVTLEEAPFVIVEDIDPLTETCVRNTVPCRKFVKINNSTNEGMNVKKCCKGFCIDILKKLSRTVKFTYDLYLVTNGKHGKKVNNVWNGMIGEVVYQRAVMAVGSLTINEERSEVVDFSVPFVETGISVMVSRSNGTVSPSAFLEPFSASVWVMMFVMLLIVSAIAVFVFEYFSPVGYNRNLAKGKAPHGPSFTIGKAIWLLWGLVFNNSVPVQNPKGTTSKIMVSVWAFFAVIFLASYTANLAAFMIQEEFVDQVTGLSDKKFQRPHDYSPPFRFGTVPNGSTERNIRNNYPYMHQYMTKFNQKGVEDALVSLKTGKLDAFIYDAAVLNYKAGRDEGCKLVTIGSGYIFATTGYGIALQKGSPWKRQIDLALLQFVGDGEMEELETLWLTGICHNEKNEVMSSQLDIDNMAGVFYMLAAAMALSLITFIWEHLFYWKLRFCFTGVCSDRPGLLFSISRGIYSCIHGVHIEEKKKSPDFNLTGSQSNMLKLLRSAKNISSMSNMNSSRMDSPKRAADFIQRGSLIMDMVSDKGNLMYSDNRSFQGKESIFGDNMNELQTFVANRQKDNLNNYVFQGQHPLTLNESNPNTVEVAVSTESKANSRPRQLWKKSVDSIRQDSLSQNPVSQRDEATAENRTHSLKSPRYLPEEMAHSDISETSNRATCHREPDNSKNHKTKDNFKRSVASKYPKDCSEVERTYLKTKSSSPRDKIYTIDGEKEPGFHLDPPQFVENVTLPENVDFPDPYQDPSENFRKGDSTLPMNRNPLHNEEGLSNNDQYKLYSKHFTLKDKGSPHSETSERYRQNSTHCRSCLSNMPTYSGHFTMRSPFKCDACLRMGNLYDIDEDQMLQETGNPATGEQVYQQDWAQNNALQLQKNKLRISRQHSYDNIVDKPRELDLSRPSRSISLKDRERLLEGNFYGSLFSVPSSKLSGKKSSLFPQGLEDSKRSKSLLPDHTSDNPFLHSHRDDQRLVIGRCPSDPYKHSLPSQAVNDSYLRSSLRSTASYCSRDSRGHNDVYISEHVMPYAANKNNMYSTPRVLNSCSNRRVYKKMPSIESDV
T1 sequence (O15399 28-1336, other chains not shown): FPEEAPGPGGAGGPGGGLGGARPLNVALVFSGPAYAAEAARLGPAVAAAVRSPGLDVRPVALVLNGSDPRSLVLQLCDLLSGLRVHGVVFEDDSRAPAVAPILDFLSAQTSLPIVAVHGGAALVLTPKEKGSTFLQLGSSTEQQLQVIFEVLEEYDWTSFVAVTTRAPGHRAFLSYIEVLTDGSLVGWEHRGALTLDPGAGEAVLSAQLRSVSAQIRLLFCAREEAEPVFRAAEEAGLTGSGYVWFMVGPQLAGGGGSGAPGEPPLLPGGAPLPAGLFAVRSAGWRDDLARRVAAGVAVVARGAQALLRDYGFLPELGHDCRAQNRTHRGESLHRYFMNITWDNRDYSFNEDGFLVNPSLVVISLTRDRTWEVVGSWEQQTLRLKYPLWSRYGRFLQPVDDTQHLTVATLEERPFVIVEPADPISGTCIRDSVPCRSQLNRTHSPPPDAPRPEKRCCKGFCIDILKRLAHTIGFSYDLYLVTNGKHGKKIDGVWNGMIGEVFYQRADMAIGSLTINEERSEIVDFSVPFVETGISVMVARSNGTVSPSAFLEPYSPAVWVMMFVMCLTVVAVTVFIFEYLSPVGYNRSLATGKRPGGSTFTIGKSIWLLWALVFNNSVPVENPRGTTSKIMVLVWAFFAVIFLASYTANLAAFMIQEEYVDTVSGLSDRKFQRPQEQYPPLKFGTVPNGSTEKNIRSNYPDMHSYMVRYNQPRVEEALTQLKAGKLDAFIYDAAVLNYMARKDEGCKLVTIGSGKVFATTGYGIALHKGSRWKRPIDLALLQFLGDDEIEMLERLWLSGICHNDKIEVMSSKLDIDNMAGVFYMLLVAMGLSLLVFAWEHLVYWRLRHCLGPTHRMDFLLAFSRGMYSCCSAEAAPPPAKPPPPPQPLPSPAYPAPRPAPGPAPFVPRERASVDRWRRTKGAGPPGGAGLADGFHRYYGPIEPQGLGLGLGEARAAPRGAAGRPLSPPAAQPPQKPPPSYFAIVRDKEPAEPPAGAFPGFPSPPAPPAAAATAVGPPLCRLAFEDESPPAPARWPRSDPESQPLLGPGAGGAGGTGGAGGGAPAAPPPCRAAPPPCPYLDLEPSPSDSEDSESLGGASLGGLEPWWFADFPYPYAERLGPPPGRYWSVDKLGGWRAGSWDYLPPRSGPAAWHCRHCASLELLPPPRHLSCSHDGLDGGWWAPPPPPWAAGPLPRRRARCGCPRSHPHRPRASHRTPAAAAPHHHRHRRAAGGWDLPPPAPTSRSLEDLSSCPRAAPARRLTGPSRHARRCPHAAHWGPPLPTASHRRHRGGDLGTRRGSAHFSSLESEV

SMILES: CCC(=O)C(C[C@H](C)N(C)C)(c1ccccc1)c1ccccc1 [Dextromethadone, dextromethadone]
- Social function (SDQ 41), LS mean difference vs placebo (patients with MDD; 25 mg, Day 7): −1.07
- Social function (SDQ 41), effect size (patients with MDD; 25 mg, Day 7): 0.65
- Sexual function (SDQ 40), LS mean difference vs placebo (patients with MDD; 25 mg, Day 14): −1.32
- Sexual function (SDQ 40), effect size (patients with MDD; 25 mg, Day 14): 0.93
- Social function (SDQ 41), LS mean difference vs placebo (patients with MDD; 25 mg, Day 14): −1,246
- Social function (SDQ 41), effect size (patients with MDD; 25 mg, Day 14): 0.99
- Sexual function (SDQ 40), LS mean difference vs placebo (patients with MDD; [6]): −0.66
- Sexual function (SDQ 40), effect size (patients with MDD; [6]): 0.48
- Social function (SDQ 41), LS mean difference vs placebo (patients with MDD; 50 mg, Day 7): −1
- Social function (SDQ 41), effect size (patients with MDD; 50 mg, Day 7): 0.57
- Sexual function (SDQ 40), LS mean difference vs placebo (patients with MDD; 50 mg, Day 14): −0.4
- Sexual function (SDQ 40), effect size (patients with MDD; 50 mg, Day 14): 0.29
- Social function (SDQ 41), effect size (patients with MDD; 50 mg, Day 14): 0.98
- Sexual function (SDQ 40), LS mean difference vs placebo (patients with MDD; [7]): −0.28
- Sexual function (SDQ 40), effect size (patients with MDD; [7]): 0.19
- Social function (SDQ 41), effect size (patients with MDD; CTG 25 mg+50 mg, Day 7): 0.61
- Sexual function (SDQ 40), LS mean difference vs placebo (patients with MDD; CTG 25 mg+50 mg, Day 14): −0.86
- Sexual function (SDQ 40), effect size (patients with MDD; CTG 25 mg+50 mg, Day 14): 0.59
- Social function (SDQ 41), LS mean difference vs placebo (patients with MDD; CTG 25 mg+50 mg, Day 14): −1.19
- Social function (SDQ 41), effect size (patients with MDD; CTG 25 mg+50 mg, Day 14): 0.99
- Sexual function (SDQ 40), LS mean difference vs placebo (patients with MDD; [8]): −0.46
- Sexual function (SDQ 40), effect size (patients with MDD; [8]): 0.32
- calcium response (mean±SEM) ([1]; 0.04 μM L-Glu + 10 μM DXT): 3.5 ± 0.2
- calcium response (mean±SEM) ([1]; 0.04 μM L-Glu + 100 μM QA + 10 μM DXT): 7.1 ± 0.4
- calcium response (mean±SEM) ([1]; 0.04 μM L-Glu + 1000 μM QA + 10 μM DXT): 33 ± 1.6
- calcium response (mean±SEM) ([1]; 0.2 μM L-Glu + 10 μM DXT): 71 ± 2.3
- calcium response (mean±SEM) ([1]; 0.2 μM L-Glu + 100 μM QA + 10 μM DXT): 69 ± 1.4
- calcium response (mean±SEM) ([1]; 0.2 μM L-Glu + 1000 μM QA + 10 μM DXT): 43 ± 1.1
- % effect on calcium entry, 100 QA + 10 DXT ([1]; 100 μM QA + 10 μM DXT): −2.4 ± 0.2%
- calcium response (mean±SEM) ([1]; 1000 μM QA + 10 μM DXT): 32 ± 0.9
- % effect on calcium entry, 1000 QA + 10 DXT ([1]; 1000 μM QA + 10 μM DXT): 32 ± 0.9%
- calcium response (mean±SEM) ([1]; 1000 μM QA + 10 μg/ml GENT + 10 μM DXT): 36 ± 0.8
- calcium response (mean±SEM) ([1]; Table 41: 0.04 μM L-Glu + 10 μM DXT): 3.5 ± 0.2
- calcium response (mean±SEM) ([1]; Table 43: 0.2 μM L-Glu + 10 μM DXT): 71 ± 2.3
- CCL2 gene expression in liver (qRT-PCR) [2]: didn't affect significantly this increase
- GPAT4 gene expression in liver (qRT-PCR) [2]: significant drop of their expression
- IL-6 gene expression in liver (qRT-PCR) [2]: able to counteract this effect
- IL-10 gene expression in liver (qRT-PCR) [2]: able to counteract this effect
- SREPB2 gene expression in liver (qRT-PCR) [2]: significant drop of their expression
- hepatic steatosis, histology [2]: reduction of steatosis
- α, estimated cooperativity term ([3]; operational analysis for allosteric modulators): 0.17
- L-glutamate CRC HillSlope ([3]; with test item 49 nM): 1.3
- L-glutamate CRC LogEC50 ([3]; with test item 49 nM): −6.8
- L-glutamate CRC HillSlope ([3]; with test item 195 nM): 1.4
- L-glutamate CRC LogEC50 ([3]; with test item 195 nM): −6.8
- L-glutamate CRC HillSlope ([3]; with test item 781 nM): 2.2
- L-glutamate CRC LogEC50 ([3]; with test item 781 nM): −6.8
- L-glutamate CRC HillSlope ([3]; with test item 3.1 μM): 1.4
- L-glutamate CRC LogEC50 ([3]; with test item 3.1 μM): −6.8
- L-glutamate CRC HillSlope ([3]; with test item 12.5 μM): 1.5
- L-glutamate CRC LogEC50 ([3]; with test item 12.5 μM): −6.7
- L-glutamate CRC HillSlope ([3]; with test item 50 μM): 1.7
- L-glutamate CRC LogEC50 ([3]; with test item 50 μM): −6.6
- calcium entry induced by 0.04 μM L-glutamate [4]: significantly reduced
- calcium entry induced by 0.2 μM L-glutamate [4]: significantly reduced
- calcium entry induced by 10 μM L-glutamate [4]: significantly reduced
- calcium entry induced by 0.04 μM L-glutamate [5]: significantly reduced
- calcium entry induced by 0.2 μM L-glutamate [5]: significantly reduced
- calcium entry induced by 10 μM L-glutamate [5]: significantly reduced
